# Data as given in patent US20240307350A1, “5-METHOXY-N,N-DIMETHYLTRYPTAMINE (5-MEO-DMT) FOR TREATING DEPRESSION” (GH RESEARCH IRELAND LIMITED, priority 2019, published 2024).
# Read-outs that look alike come from different tables or passages of the source.
# How the values were obtained:
# Assay type in all cases: in vivo, human
# [1] = test system: patients with treatment-resistant major depressive disorder; experiment: Clinical trial of inhaled 5-MeO-DMT in treatment-resistant major depressive disorder: safety and tolerability; details: for Reported adverse events: 12 mg inhaled
# Method: A clinical trial was performed in which 5-MeO-DMT free base (purity not less than 99%) was administered to patients with treatment-resistant major depressive disorder (TRD). The objectives of the study were to assess the safety and tolerability, the dose-related psychedelic effects and the effects on various measures of depression of single-day dosing of 5-MeO-DMT. The trial was reviewed and approved by the relevant national competent authority and local medical ethics committee. Patients recruited into the trial had to meet the Diagnostic and Statistical Manual of Mental Disorders-Fifth Edition (DSM-5) diagnostic criteria for single-episode or recurrent major depressive disorder and had to be treatment-resistant, both aspects as evaluated by a psychiatrist or registered psychologist. Patients who were using any psychoactive medication or substance (such as anti-depressive medication) had to discontinue such medication or substance and had to observe a wash-out period before the 5-MeO-DMT administration. On the administration day, a single dose of 12 mg 5-MeO-DMT was administered to the patients via a single inhalation as described in Example 1A. Patients were closely monitored for 3.5 hours after administration, with additional follow-up visits 1 day and 7 days after dosing. Various safety related measures (e.g., adverse event reporting, safety laboratory analyses, vital signs, electrocardiogram (ECG), Clinician Administered Dissociative States Scale (CADSS), Psychomotor Vigilance Test (PVT), Digit Symbol Substitution Test (DSST)), measures of the intensity of the psychedelic effects (e.g., Peak Psychedelic Experience Questionnaire (PPEQ), Altered States of Consciousness (ASC) Questionnaire, Mystical Experience Questionnaire (MEQ30), subjective description of the psychedelic experience), measures of depression severity (Montgomery-Åsberg Depression Rating Scale (MADRS), Patient's Global Impression of Severity scale (PGI-S), Patient's Global Impression of Improvement scale (PGI-I)), and additional psychological measures (e.g., Columbia-Suicide Severity Rating Scale (C-SSRS), Brief Psychiatric Rating Scale (BPRS)) were recorded at different time points. Psychological support via a psychologist and/or psychiatrist was available to the patients throughout the study, but no specific psychotherapy was applied, and no additional psychoactive medication was provided.
# Two patients with major depressive disorder diagnosed by a psychiatrist according to DSM-5 diagnostic criteria were recruited into the study (Example 2, Table 1). The patients were considered treatment-resistant because they had not shown adequate improvement to at least two adequate courses of pharmacological therapy in the current episode of depression.
# [2] = Clinical trial in healthy volunteers: 5-MeO-DMT and bufotenine plasma levels; details: human, plasma, inhaled, read-out: 5-MeO-DMT plasma levels, group median; for concentration at 1 h: 1 hour after administration; for concentration at 3 h: 3 hours after administration
# Method: (§1) A clinical trial was performed in which 5-MeO-DMT free base (purity not less than 99%) at different dose levels was administered via inhalation (as described in Example 1) in a single day to healthy volunteers who had prior experiences with the use of synthetic or naturally-occurring psychedelics. The trial was reviewed and approved by the relevant national competent authority and local medical ethics committee. The trial consisted of two parts: Part A, where single doses of 5-MeO-DMT dosage amounts of 2 mg, 6 mg, 12 mg and 18 mg were administered; and Part B, where an initial 5-MeO-DMT dosage amount of 6 mg was administered, and then, unless the participant had already experienced a peak psychedelic experience based on the PPEQ or the supervising physician had decided that further dose increases were inappropriate based on observed side effects, further subsequent dosage amounts of 12 mg and 18 mg were administered with about 3 hours in between each administration. Participants in Part A only received one dose and were not allowed to receive higher doses in later parts of Part A and were not allowed to participate in Part B. Participants were closely monitored for 3.5 hours after the last dose, with additional follow-up visits 1 day and 7 days after dosing. Various safety related measures (e.g., adverse event reporting, safety laboratory analyses, vital signs, ECG, CADSS, PVT, DSST, Prospective Memory Task (PMT)) as well as measures of the intensity of the psychedelic effects (MEQ30, ASC, PPEQ, subjective description of the psychedelic experience) were recorded. Pharmacokinetic analysis of 5-MeO-DMT and bufotenine plasma levels was performed at 1 hour and 3 hours after drug administration in Part A, and at 3 hours after drug administration in Part B.
# [3] = test system: healthy volunteers; experiment: Clinical trial of inhaled 5-MeO-DMT in healthy volunteers: safety and tolerability
# Method: as §1
# 18 participants were recruited into Part A of the study and 4 participants were recruited into Part B. 9 Participants were female and 13 participants were male. Median age was 29 years (range: 19 to 42 years). In Part A, 4 participants received 2 mg, 6 participants received 6 mg, 4 participants received 12 mg and 4 participants received 18 mg of 5-MeO-DMT. In Part B, 1 participant received 6 mg, 2 participants received 6 mg and then 12 mg and one participant received 6 mg, 12 mg and then 18 mg of 5-MeO-DMT.
# [4] = Part A, 2 mg (n = 4), Administration day, mild
# [5] = Part A, 6 mg (n = 6), Administration day, mild
# [6] = Part A, 6 mg (n = 6), Day 1, mild
# [7] = Part A, 18 mg (n = 4), Administration day, mild
# [8] = Part A, 18 mg (n = 4), Day 1, mild
# [9] = Part B, 12 mg (n = 3), after 6 mg, Administration day, mild
structure (smiles),measurement,setting,value
"COc1ccc2[nH]cc(CCN(C)C)c2c1 [5-MeO-DMT, 5-methoxy-N,N-dimethyltryptamine]","ECG, safety laboratory analyses, CADSS and cognitive tests (PVT, DSST)","[1]; ECG at 3 hours, laboratory at 3 hours and 7 days, CADSS at 3 hours, 1 day and 7 days, PVT, DSST at 1 day and 7 days",unremarkable
same,Reported adverse events,"[1]; Patient 1, Administration day, mild, resolved spontaneously",Dizziness
same,Reported adverse events,"[1]; Patient 1, Day 1, mild, resolved spontaneously","Headache, Flashback"
same,Reported adverse events,"[1]; Patient 1, Day 7, mild, resolved spontaneously",Headache
same,Reported adverse events,"[1]; Patient 2, Administration day",None reported
same,Reported adverse events,"[1]; Patient 2, Day 1, mild, resolved spontaneously",Headache
same,Reported adverse events,"[1]; Patient 2, Day 7",None reported
same,changes in vital parameters,"[1]; shortly after administration of 12 mg, both patients","temporary, not clinically relevant increase in heart rate and blood pressure"
same,tolerability of the inhalation procedure,"[1]; single dose of 12 mg via inhalation, both patients",well tolerated with no inhalation-related adverse events
same,concentration at 1 h,"[2]; 2 mg, Part A 2 mg (n = 4), range 0.03-0.69",0.38 ng/mL
same,concentration at 3 h,"[2]; 2 mg, Part A 2 mg (n = 4), range 0.01-0.04",0.03 ng/mL
same,concentration at 1 h,"[2]; 6 mg, Part A 6 mg (n = 6), range 0.09-0.64",0.33 ng/mL
same,concentration at 3 h,"[2]; 6 mg, Part A 6 mg (n = 6), range 0.00-0.06",0.02 ng/mL
same,concentration at 3 h,"[2]; 6 mg, Part B 6 mg (n = 4), range 0.00-0.09",0.01 ng/mL
same,concentration at 1 h,"[2]; 12 mg, Part A 12 mg (n = 4), range 0.13-0.29",0.19 ng/mL
same,concentration at 3 h,"[2]; 12 mg, Part A 12 mg (n = 4), range 0.01-0.01",0.01 ng/mL
same,concentration at 1 h,"[2]; 18 mg, Part A 18 mg (n = 4), range 0.15-2.42",0.65 ng/mL
same,concentration at 3 h,"[2]; 18 mg, Part A 18 mg (n = 4), range 0.01-0.24",0.04 ng/mL
same,concentration at 3 h,"[2]; Part B 6 mg, 12 mg (n = 3), range 0.01-0.05",0.03 ng/mL
same,concentration at 3 h,"[2]; Part B 6 mg, 12 mg, 18 mg (n = 1), range 0.05-0.05",0.05 ng/mL
same,"ECG, safety laboratory analyses, CADSS and cognitive tests (PVT, DSST, PMT)",[3]; 2 mg to 18 mg via inhalation,unremarkable
same,inhalation-related adverse events,"[3]; Part A and Part B, 2 mg to 18 mg via inhalation",No inhalation-related adverse events
same,Adverse events reported: Nausea (number of volunteers),[3]; [4],2
same,Adverse events reported: Tachycardia (number of volunteers),[3]; [4],1
same,Adverse events reported: Vision blurred (number of volunteers),[3]; [4],1
same,Adverse events reported: Anxiety (number of volunteers),[3]; [5],1
same,Adverse events reported: Headache (number of volunteers),[3]; [5],1
same,Adverse events reported: Nausea (number of volunteers),[3]; [5],1
same,Adverse events reported: Clumsiness (number of volunteers),[3]; [6],1
same,Adverse events reported: Feeling hot (number of volunteers),[3]; [6],1
same,Adverse events reported: Headache (number of volunteers),[3]; [6],1
same,Adverse events reported: Anxiety (number of volunteers),"[3]; Part A, 12 mg (n = 4), Administration day, mild",1
same,Adverse events reported: Heart rate increased (number of volunteers),"[3]; Part A, 12 mg (n = 4), Administration day, this event was moderate",1^1
same,Adverse events reported: Headache (number of volunteers),[3]; [7],1
same,Adverse events reported: Nausea (number of volunteers),[3]; [7],1
same,Adverse events reported: Abnormal dreams (number of volunteers),[3]; [8],1
same,Adverse events reported: Fatigue (number of volunteers),[3]; [8],1
same,Adverse events reported: Hallucination (number of volunteers),[3]; [8],1
same,Adverse events reported: Hyperacusis (number of volunteers),[3]; [8],1
same,Adverse events reported: Insomnia (number of volunteers),[3]; [8],1
same,Adverse events reported: Mental fatigue (number of volunteers),[3]; [8],1
same,Adverse events reported: Flashback (number of volunteers),"[3]; Part A, 18 mg (n = 4), Day 7, mild",1
same,Adverse events reported: Nausea (number of volunteers),"[3]; Part B, 6 mg (n = 4), Administration day, mild",1
same,Adverse events reported: Fatigue (number of volunteers),[3]; [9],1
same,Adverse events reported: Head discomfort (number of volunteers),[3]; [9],1
same,Adverse events reported: Headache (number of volunteers),[3]; [9],1
same,Adverse events reported: Nausea (number of volunteers),[3]; [9],1
same,Adverse events reported,"[3]; Part B, 18 mg (n = 1), after 12 mg and 6 mg",None reported
same,changes in vital parameters,"[3]; shortly after administration, 2 mg to 18 mg via inhalation","temporary, not clinically relevant increase in heart rate and blood pressure"
